Patent publication US12280037B2, “Method and pharmaceutical composition for treating or preventing trichomoniasis and uses thereof” (EVOFEM BIOSCIENCES, INC., priority 2020, dated 2025)
Values after ≈ are worked out from the molar mass of the structure shown. Values joined by “and” are separate entries in the source; they are usually repeats but may differ in a detail not shown here. Identical values can stand only once.

Experiments:
[1] = Thorough QT (TQT) study: QTc, cardiac conduction and adverse events; settings: Moxifloxacin 400 mg oral (control)
Method: A TQT study was also conducted. The TQT study was a double-blind, randomized, placebo-controlled, 4-period, single-dose, crossover design in 52 healthy male and female subjects.

[2] = Phase I study of SYM-1219 4 grams or 6 grams: secnidazole plasma concentrations; assay type: in vivo, human
Method: Additionally, a Phase I, randomized, placebo-controlled, single-blind, two-group study, which assessed the safety, tolerability, and PK of single oral doses of SYM-1219 granules containing either 4 grams or 6 grams of secnidazole administered in approximately 8 ounces of applesauce to 16 healthy male and female subjects, was conducted to determine the supratherapeutic dose for a potential Thorough QT (“TQT”) study. Subjects were randomized 3:1, such that a total of 12 subjects received secnidazole and 4 subjects received placebo. 3 male and 3 female subjects were treated at each secnidazole dose level (i.e., 4 grams or 6 grams). Blood samples for PK assessments were collected at the following timepoints: 30 minutes prior to dosing and 3 hours, 6 hours, 8 hours and 24 hours post dose. Plasma concentrations were summarized by timepoint using descriptive statistics; noncompartmental PK parameters were not calculated.
Eligible subject were admitted to the clinical site on Day −1 and were discharged following a safety evaluation on Day 2; the in-house period was approximately 2 days. Randomization occurred after the assessments of Day −1 determined that subjects remained eligible for the study. All subject were asked to return on Day 7+/2 days for a final study visit. The maximum study duration was approximately 4 weeks to 5 weeks (including the study screening period).
Group A received a single oral dose of SYM-1219 microgranules, containing 4 grams of secnidazole (N=6) (2 packets of SYM-1219 microgranules, 2 grams of secnidazole/packet), or a placebo (N=2) (2 packets of placebo) in approximately 8 oz. of applesauce. […]
Blood samples for PK analysis were collected: 30 minutes prior to dosing and 3 hours, 6 hours, 8 hours and 24 hours postdose. […] Plasma secnidazole concentrations were determined by Celerion, Inc., using validated analytical procedures. […]

[3] = Thorough QT (TQT) study: secnidazole pharmacokinetics by gender; assay type: in vivo, human
Method: A TQT study was also conducted. […] A total of 50 subjects (29 males and 21 females) were included in the PK population. Noncompartmental PK parameters for these subjects are summarized by gender in Table 15 below.

[4] = test system: clinical isolates of T. vaginalis; test: Susceptibility testing, minimal lethal concentration (MLC), aerobic; assay type: cell-based, Trichomonas vaginalis; settings: for MLC, mean (±SD) among all isolates / MLC, median: aerobic, 46-50 h
Method: Susceptibility testing was conducted with one hundred (100) clinical isolates of T. vaginalis.
Archived, de-identified, clinical isolates of T. vaginalis that were banked in liquid nitrogen were used for this study. The samples had been collected between July 2015 and June 2017, in accordance with institutional review board guidelines, and all patients had consented to the storage and use of their samples for subsequent testing. […] In brief, trichomonads were grown in Diamond's medium 1025 (containing trypticase soy broth, yeast extract, maltose, and calf serum) adjusted to pH 5.9 and supplemented with streptomycin at 1 g/liter and penicillin G at 100 U/ml. A hemocytometer was used to count the trichomonad population and to adjust it to a concentration of 66,666 cells/ml. Isolates were tested in microtiter plates under aerobic conditions. […] Plates were then incubated at 37° C. for 46 hours to 50 hours and read with a Zeiss Axiovert inverted microscope. The concentration of drug in the microplate wells in which no motile trichomonads were observed was reported as the MLC. […] Low-level resistance was defined as an aerobic MLC of 50 μg/ml to 100 μg/ml, moderate-level resistance as an aerobic MLC of 200 μg/ml, and high-level resistance as an aerobic MLC of >400 μg/ml. The MLCs for metronidazole and secnidazole were analyzed using the Wilcoxon signed-rank test to evaluate the differences between treatments.
Each well of a 96-well plate was filled with 150 μL of T. vaginalis suspension in Diamond's growth media (10^4 trichomonads). […] Cultures were visually assessed for survival, defined by observation of motility, through a 100× inverted microscope.

[5] = Phase 3 study: treatment-emergent adverse events (safety population); assay type: in vivo, human; settings: 2 grams, safety population (N = 74), TEAEs in primary phase
Method: Safety analyses, including the evaluation of adverse events, physical examinations, pelvic examinations, collection of vital signs (blood pressure, temperature, and pulse), and clinical laboratory assessments (serum chemistry, hematology, and urinalysis) was conducted at all study visits. Adverse event information was also collected on the phone call between study V2 and V3.

[6] = men, published studies; cited from earlier work
[7] = 100 clinical T. vaginalis isolates
[8] = 100 clinical T. vaginalis isolates, listed as secnidazole

Q: For `COc1c(N2C[C@@H]3CCCN[C@@H]3C2)c(F)cc2c(=O)c(C(=O)O)cn(C3CC3)c12` [Moxifloxacin], which “Overall incidence rate of TEAEs” value [1] is on record?
A: 4.3%

Q: For `Cc1ncc([N+](=O)[O-])n1CC(C)O` (stereo not drawn) [Secnidazole, 1-(2-hydroxypropyl)-2-methyl-5-nitromidazole], which “Plasma concentrations and exposures in males versus females” value ([2]; 4 and 6 grams) is on record?
A: slightly lower

Q: And the “Variability in plasma concentrations” value ([2]; across the limited sampling times, 4 and 6 grams)?
A: 4% to 29%

Q: And the “Dose proportionality of plasma concentrations” value ([2]; from 4 grams to 6 grams of secnidazole)?
A: essentially dose-proportional

Q: And the “Plasma concentrations and exposures in males versus females” value ([3]; 2 and 6 grams)?
A: slightly lower

Q: What about the “Secnidazole exposure over the 24-hour sampling period, fold lower in male vs female subjects” value ([3]; Phase I study concentration-by-time data or TQT study mean PK parameters) of the same compound?
A: approximately 1.5 fold

Q: And the “Variability in plasma concentrations” value ([3]; across the sampling times, 2 and 6 grams)?
A: 21% to 57%

Q: What about the “Dose proportionality of plasma concentrations” value ([3]; from 2 grams to 6 grams of secnidazole) of the same compound?
A: essentially dose-proportional

Q: And the “Time postdose up to which concentrations greater than the median MLC are maintained” value ([3]; men)?
A: at least 96 hours

Q: What about the “In vitro efficacy in comparison with metronidazole” value [4, 7] of the same compound?
A: superior efficacy in vitro

Q: What about the “Isolates demonstrating moderate- or high-level resistance” value [4, 7] of the same compound?
A: none of the isolates

Q: What about the “Isolates with a lower MLC for secnidazole than for metronidazole” value [4, 7] of the same compound?
A: 96%

Q: And the “Prevalence of low-level resistance (aerobic MLC 50 μg/ml to 100 μg/ml)” value [4, 7]?
A: Four

Q: What about the “MLC, mean (±SD) among all isolates” value [4, 7] of the same compound?
A: Mean: 5.9 μg/mL

Q: And the “MLC, median” value [4, 7]?
A: Median: 1.6 μg/mL

Q: And the “MLC, mean (±SD) among all isolates” value [4, 8]?
A: 5.9 ± 13.2 µg/mL and 5.9 µg/mL

Q: And the “MLC, median” value [4, 8]?
A: 1.6 µg/mL (≈ 8.64 µM)

Q: What about the “Response of control isolates with established high-level resistance to metronidazole” value ([4]; control isolates) of the same compound?
A: responded to significantly lower levels of secnidazole

Q: What about the “MLC in the one isolate with a higher MLC for secnidazole than for metronidazole” value ([4]; single clinical isolate) of the same compound?
A: 3.1 µg/mL

Q: And the “Abdominal pain: Events n” value [5]?
A: 1

Q: What about the “Abdominal pain: Patients n (%)” value [5] of the same compound?
A: 1 (1.4%)

Q: What about the “Any Adverse Event, Overall: Events n” value [5] of the same compound?
A: 13

Q: What about the “Any Adverse Event, Overall: Patients n (%)” value [5] of the same compound?
A: 11 (14.9%)

Q: And the “Back pain: Events n” value [5]?
A: 0

Q: And the “Back pain: Patients n (%)” value [5]?
A: 0%

Q: What about the “Diarrhea: Events n” value [5] of the same compound?
A: 1

Q: What about the “Diarrhea: Patients n (%)” value [5] of the same compound?
A: 1 (1.4%)

Q: And the “Dysmenorrhoea: Events n” value [5]?
A: 0

Q: What about the “Dysmenorrhoea: Patients n (%)” value [5] of the same compound?
A: 0%

Q: What about the “Gastrointestinal disorders, Overall: Events n” value [5] of the same compound?
A: 5

Q: And the “Gastrointestinal disorders, Overall: Patients n (%)” value [5]?
A: 4 (5.4%)

Q: What about the “General disorders and administration site conditions, Overall: Events n” value [5] of the same compound?
A: 0

Q: And the “General disorders and administration site conditions, Overall: Patients n (%)” value [5]?
A: 0%

Q: What about the “Headache: Events n” value [5] of the same compound?
A: 1

Q: What about the “Headache: Patients n (%)” value [5] of the same compound?
A: 1 (1.4%)

Q: And the “Infections and infestations, Overall: Events n” value [5]?
A: 3

Q: And the “Infections and infestations, Overall: Patients n (%)” value [5]?
A: 3 (4.1%)

Q: What about the “Menstruation irregular: Events n” value [5] of the same compound?
A: 0

Q: And the “Menstruation irregular: Patients n (%)” value [5]?
A: 0%

Q: What about the “Musculoskeletal and connective tissue disorders, Overall: Events n” value [5] of the same compound?
A: 1

Q: What about the “Musculoskeletal and connective tissue disorders, Overall: Patients n (%)” value [5] of the same compound?
A: 1 (1.4%)

Q: And the “Myalgia: Events n” value [5]?
A: 1

Q: What about the “Myalgia: Patients n (%)” value [5] of the same compound?
A: 1 (1.4%)

Q: And the “Nausea: Events n” value [5]?
A: 2

Q: What about the “Nausea: Patients n (%)” value [5] of the same compound?
A: 2 (2.7%)

Q: What about the “Nervous system disorders, Overall: Events n” value [5] of the same compound?
A: 1

Q: And the “Nervous system disorders, Overall: Patients n (%)” value [5]?
A: 1 (1.4%)

Q: And the “Productive cough: Events n” value [5]?
A: 1

Q: And the “Productive cough: Patients n (%)” value [5]?
A: 1 (1.4%)

Q: What about the “Pruritus: Events n” value [5] of the same compound?
A: 0

Q: What about the “Pruritus: Patients n (%)” value [5] of the same compound?
A: 0%

Q: And the “Reproductive system and breast disorders, Overall: Events n” value [5]?
A: 1

Q: What about the “Reproductive system and breast disorders, Overall: Patients n (%)” value [5] of the same compound?
A: 1 (1.4%)

Q: And the “Respiratory, thoracic and mediastinal disorders, Overall: Events n” value [5]?
A: 2

Q: What about the “Respiratory, thoracic and mediastinal disorders, Overall: Patients n (%)” value [5] of the same compound?
A: 2 (2.7%)

Q: What about the “Skin and subcutaneous tissue disorders, Overall: Events n” value [5] of the same compound?
A: 0

Q: And the “Skin and subcutaneous tissue disorders, Overall: Patients n (%)” value [5]?
A: 0%

Q: What about the “Thirst: Events n” value [5] of the same compound?
A: 0

Q: And the “Thirst: Patients n (%)” value [5]?
A: 0%

Q: What about the “Trichomoniasis (adverse event): Events n” value [5] of the same compound?
A: 0

Q: And the “Trichomoniasis (adverse event): Patients n (%)” value [5]?
A: 0%

Q: What about the “Upper-airway cough syndrome: Events n” value [5] of the same compound?
A: 1

Q: What about the “Upper-airway cough syndrome: Patients n (%)” value [5] of the same compound?
A: 1 (1.4%)

Q: What about the “Vomiting: Events n” value [5] of the same compound?
A: 1

Q: What about the “Vomiting: Patients n (%)” value [5] of the same compound?
A: 1 (1.4%)

Q: And the “Vulvovaginal candidiasis: Events n” value [5]?
A: 2

Q: What about the “Vulvovaginal candidiasis: Patients n (%)” value [5] of the same compound?
A: 2 (2.7%)

Q: And the “Vulvovaginal mycotic infection: Events n” value [5]?
A: 1

Q: What about the “Vulvovaginal mycotic infection: Patients n (%)” value [5] of the same compound?
A: 1 (1.4%)

Q: And the “Vulvovaginal pruritus: Events n” value [5]?
A: 1

Q: What about the “Vulvovaginal pruritus: Patients n (%)” value [5] of the same compound?
A: 1 (1.4%)

Q: And the “Mean dose-normalized (to 2 grams) concentrations at 96 hours” value [6]?
A: approximately 2 μg/mL
